This is an account of results in ChEMBL document CHEMBL1158409, “Discovery of 3,5-disubstituted-1H-pyrrolo[2,3-b]pyridines as potent inhibitors of the insulin-like growth factor-1 receptor (IGF-1R) tyrosine kinase” (Bioorg Med Chem Lett, 2009).

Test [1] has as its target T1, Insulin-like growth factor 1 receptor (Homo sapiens, UniProt P08069). The experiment in a line: Inhibition of GST-tagged human IGF1R expressed in Sf9-baculovirus system.
Test [2] deals with T1, Insulin-like growth factor 1 receptor. The experiment in a line: Inhibition of IGF1-induced human IGF1R phosphorylation expressed in mouse NIH-3T3 cells treated 2 hrs prior to IGF1 challenge by DELFIA.
The target in test [3] is Mitogen-activated protein kinase 10 (Homo sapiens, UniProt P53779). Briefly: Inhibition of JNK3.
Test [4] has as its target T2, Inhibitor of nuclear factor kappa-B kinase subunit alpha (Homo sapiens, UniProt O15111).
T2 sequence (O15111 whole entry): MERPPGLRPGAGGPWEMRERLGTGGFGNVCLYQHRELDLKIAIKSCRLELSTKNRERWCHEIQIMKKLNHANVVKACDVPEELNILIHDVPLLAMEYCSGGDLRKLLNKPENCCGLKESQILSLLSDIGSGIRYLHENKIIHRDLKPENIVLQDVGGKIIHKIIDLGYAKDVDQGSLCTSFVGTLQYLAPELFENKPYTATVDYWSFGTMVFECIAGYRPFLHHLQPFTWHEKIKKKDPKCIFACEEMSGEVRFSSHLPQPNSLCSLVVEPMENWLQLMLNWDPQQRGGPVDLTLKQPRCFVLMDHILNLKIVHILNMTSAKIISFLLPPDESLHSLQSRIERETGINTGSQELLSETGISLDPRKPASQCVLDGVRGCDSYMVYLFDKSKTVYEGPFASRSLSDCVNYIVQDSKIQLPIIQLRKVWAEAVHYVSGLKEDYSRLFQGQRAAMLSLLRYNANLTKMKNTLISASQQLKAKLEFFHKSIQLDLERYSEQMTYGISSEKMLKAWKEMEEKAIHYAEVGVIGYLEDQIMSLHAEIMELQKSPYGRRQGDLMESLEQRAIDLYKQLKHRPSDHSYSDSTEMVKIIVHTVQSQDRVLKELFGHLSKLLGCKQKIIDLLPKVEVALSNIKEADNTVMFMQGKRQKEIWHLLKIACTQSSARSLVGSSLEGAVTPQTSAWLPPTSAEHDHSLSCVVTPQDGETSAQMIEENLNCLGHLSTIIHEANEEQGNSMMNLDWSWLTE
Briefly: Inhibition of IKK1.

Test [5] deals with T3, Inhibitor of nuclear factor kappa-B kinase subunit beta (Homo sapiens, UniProt O14920).
T3 sequence (O14920 whole entry): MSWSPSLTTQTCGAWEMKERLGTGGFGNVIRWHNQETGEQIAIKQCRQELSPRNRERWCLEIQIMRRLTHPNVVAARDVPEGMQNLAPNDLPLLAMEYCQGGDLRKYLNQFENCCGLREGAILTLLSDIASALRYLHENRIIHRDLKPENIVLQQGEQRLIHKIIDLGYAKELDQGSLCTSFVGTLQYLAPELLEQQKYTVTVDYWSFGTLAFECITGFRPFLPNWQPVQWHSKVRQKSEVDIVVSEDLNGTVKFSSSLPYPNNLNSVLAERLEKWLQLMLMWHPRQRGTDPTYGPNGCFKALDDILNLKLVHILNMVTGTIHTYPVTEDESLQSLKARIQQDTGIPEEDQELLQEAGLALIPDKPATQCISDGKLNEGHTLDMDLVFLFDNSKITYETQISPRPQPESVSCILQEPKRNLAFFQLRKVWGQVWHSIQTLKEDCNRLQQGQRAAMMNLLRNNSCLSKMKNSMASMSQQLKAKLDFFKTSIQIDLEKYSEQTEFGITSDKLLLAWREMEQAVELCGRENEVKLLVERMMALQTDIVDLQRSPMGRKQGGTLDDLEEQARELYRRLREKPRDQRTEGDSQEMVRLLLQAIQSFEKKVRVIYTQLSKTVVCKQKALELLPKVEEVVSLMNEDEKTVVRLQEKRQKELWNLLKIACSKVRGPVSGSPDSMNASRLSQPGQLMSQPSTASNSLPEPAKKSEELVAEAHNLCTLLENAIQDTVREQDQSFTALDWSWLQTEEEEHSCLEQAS
Briefly: Inhibition of IKK2.

Test [6] has as its target Tyrosine-protein kinase SYK (Homo sapiens, UniProt P43405). The experiment in a line: Inhibition of SYK.
In test [7] the target is Tyrosine-protein kinase Lyn (Homo sapiens, UniProt P07948). Briefly: Inhibition of LYN.
For test [8], the target named is Mitogen-activated protein kinase 8 (Homo sapiens, UniProt P45983). The experiment in a line: Inhibition of JNK1.
Mitogen-activated protein kinase 8, sequence (P45983 whole entry): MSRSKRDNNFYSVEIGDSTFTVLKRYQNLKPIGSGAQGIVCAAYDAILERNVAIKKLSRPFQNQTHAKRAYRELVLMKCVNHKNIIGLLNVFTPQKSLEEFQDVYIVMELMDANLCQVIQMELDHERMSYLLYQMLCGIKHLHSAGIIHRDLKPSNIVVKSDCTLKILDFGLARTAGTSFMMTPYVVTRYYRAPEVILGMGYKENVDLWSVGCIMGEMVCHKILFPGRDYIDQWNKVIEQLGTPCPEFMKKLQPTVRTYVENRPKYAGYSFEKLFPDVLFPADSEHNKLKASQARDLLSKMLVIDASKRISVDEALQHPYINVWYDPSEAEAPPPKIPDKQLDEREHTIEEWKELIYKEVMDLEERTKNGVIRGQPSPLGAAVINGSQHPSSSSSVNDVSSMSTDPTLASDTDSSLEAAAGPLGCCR

T1 sequence (P08069 31-736 limits assumed): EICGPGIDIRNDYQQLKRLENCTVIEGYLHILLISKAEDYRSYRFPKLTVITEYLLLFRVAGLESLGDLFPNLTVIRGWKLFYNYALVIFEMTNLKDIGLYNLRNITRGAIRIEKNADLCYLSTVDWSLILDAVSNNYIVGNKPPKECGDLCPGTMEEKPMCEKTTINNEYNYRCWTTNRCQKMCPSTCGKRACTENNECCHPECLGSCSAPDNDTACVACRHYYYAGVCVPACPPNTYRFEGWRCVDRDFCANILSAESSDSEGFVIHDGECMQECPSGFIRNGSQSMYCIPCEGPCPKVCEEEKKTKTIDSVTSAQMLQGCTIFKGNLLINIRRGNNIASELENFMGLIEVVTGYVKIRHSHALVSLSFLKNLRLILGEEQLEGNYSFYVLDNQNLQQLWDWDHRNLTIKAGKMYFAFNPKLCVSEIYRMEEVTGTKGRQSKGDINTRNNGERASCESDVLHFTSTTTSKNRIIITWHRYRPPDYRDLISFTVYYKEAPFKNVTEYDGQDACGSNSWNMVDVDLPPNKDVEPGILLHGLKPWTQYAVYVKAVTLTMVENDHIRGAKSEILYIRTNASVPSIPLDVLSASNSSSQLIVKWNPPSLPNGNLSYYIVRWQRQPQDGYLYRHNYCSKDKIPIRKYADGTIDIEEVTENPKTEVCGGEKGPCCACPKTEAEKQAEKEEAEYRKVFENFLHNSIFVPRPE
T1 sequence (P08069 741-1367 limits assumed): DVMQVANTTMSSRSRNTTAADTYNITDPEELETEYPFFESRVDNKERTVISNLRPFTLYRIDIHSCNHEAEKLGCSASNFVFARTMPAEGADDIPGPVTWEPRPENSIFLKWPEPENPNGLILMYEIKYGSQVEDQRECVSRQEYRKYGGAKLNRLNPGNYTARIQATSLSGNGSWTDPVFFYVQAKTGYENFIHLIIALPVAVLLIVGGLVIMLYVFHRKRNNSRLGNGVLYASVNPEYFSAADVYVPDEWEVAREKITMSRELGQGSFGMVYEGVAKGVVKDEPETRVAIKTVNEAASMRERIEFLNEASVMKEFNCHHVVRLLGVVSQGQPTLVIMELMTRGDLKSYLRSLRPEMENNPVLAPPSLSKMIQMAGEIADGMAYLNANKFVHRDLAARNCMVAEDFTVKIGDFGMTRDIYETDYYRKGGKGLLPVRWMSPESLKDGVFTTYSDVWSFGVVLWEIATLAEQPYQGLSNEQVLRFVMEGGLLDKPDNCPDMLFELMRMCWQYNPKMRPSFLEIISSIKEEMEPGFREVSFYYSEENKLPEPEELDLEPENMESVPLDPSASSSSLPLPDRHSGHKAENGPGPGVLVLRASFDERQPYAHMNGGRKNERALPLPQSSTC
Tyrosine-protein kinase Lyn, sequence (P07948 whole entry): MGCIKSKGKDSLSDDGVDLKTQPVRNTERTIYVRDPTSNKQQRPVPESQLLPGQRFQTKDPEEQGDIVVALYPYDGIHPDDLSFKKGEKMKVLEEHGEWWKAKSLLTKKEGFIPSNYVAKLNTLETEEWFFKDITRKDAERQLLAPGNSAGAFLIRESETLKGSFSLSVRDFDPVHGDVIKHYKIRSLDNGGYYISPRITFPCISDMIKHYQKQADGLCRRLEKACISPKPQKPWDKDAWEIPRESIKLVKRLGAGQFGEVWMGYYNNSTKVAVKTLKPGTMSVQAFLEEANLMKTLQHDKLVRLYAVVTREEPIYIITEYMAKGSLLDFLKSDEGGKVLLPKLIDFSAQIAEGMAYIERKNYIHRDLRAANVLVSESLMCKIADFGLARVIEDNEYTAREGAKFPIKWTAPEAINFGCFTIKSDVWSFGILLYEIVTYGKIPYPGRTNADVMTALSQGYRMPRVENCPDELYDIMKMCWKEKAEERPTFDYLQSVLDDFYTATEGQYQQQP
Mitogen-activated protein kinase 10, sequence (P53779 whole entry): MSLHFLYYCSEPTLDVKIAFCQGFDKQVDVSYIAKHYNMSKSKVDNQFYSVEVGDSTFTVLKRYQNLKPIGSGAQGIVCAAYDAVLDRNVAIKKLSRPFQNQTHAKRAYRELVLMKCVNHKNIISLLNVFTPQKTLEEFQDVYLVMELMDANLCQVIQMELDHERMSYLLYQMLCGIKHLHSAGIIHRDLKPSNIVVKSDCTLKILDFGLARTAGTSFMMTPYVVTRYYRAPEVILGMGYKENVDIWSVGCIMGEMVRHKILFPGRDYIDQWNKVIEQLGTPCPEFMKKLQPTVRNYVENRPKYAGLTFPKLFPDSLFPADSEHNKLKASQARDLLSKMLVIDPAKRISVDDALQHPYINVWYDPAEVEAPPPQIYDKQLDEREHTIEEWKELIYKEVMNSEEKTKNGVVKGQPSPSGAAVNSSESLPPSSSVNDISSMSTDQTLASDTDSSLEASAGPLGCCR

What is called IC50 is the point on the concentration scale where inhibition reaches its midpoint. Higher therefore signals lower potency. The compound `CN(C)CCNC(=O)c1cccc(-c2cnc3[nH]cc(-c4cccc(NC(=O)Nc5ccc(C(F)(F)F)cc5F)c4)c3c2)c1` showed an IC50 in test [1] of 67 nM.

In the case of `CN(C)C(=O)c1cccc(-c2cnc3[nH]cc(-c4cccc(NC(=O)Nc5ccc(Oc6ccccc6)cc5)c4)c3c2)c1`, the IC50 in test [2] was 3070 nM; in test [1] it was 2040 nM.

On to `CN(C)CCNC(=O)c1ccc(-c2cnc3[nH]cc(-c4cccc(NC(=O)Nc5ccc(C(F)(F)F)cc5F)c4)c3c2)cc1`, for which, in test [1], half-maximal inhibition (IC50) was put at 36 nM. For `CN(C)C(=O)c1cccc(-c2cnc3[nH]cc(-c4cccc(NC(=O)Nc5ccccc5OCc5ccccc5)c4)c3c2)c1`, the IC50 in test [2] came out at 517 nM; in test [1], 132 nM. The like results for `O=C(O)CCc1ccc(-c2cnc3[nH]cc(-c4cccc(NC(=O)Nc5ccccc5Oc5ccccc5)c4)c3c2)cc1` were, in that order, 3620 nM and 210 nM. In the same order, the values of `CN(C)C(=O)c1cccc(-c2cnc3[nH]cc(-c4cccc(NC(=O)Nc5ccccc5Oc5ccccc5)c4)c3c2)c1` are 68 nM and 21 nM. The compound `Nc1cccc(-c2cnc3[nH]cc(-c4cccc(NC(=O)Nc5ccc(C(F)(F)F)cc5F)c4)c3c2)c1` yielded an IC50 in test [1] of 242 nM.

With `CN(C)CCNC(=O)c1cccc(-c2cnc3[nH]cc(-c4cccc(NC(=O)Nc5ccccc5Oc5ccccc5)c4)c3c2)c1`, in test [1], the IC50 stood at 4 nM. On the same count and under the same terms, next, `O=C(Nc1cccc(Cl)c1)Nc1cccc(-c2c[nH]c3ncc(-c4ccccc4)cc23)c1`: 1020 nM; `O=C(Nc1ccccc1)Nc1cccc(-c2c[nH]c3ncc(-c4ccccc4)cc23)c1`: 749 nM. The same measure, in the same setting: next, `Nc1ccc(-c2cnc3[nH]cc(-c4cccc(NC(=O)Nc5ccc(C(F)(F)F)cc5F)c4)c3c2)cc1`: 200 nM. As for `NCc1ccc(-c2cnc3[nH]cc(-c4cccc(NC(=O)Nc5ccc(C(F)(F)F)cc5F)c4)c3c2)cc1`, the IC50 in test [3] amounted to 250 nM; in test [4], 32 nM; in test [5], 79 nM; in test [1], 50 nM; in test [6], 80 nM; in test [7], 40 nM. In test [8], this compound had an IC50 of 79 nM. On to `CN(C)S(=O)(=O)c1ccc(-c2cnc3[nH]cc(-c4cccc(NC(=O)Nc5ccccc5Oc5ccccc5)c4)c3c2)cc1`, for which the IC50 in test [2] was 20800 nM. The compound `CN1CCN(C(=O)c2ccc(-c3cnc4[nH]cc(-c5cccc(NC(=O)Nc6ccc(C(F)(F)F)cc6F)c5)c4c3)cc2)CC1` had a half-inhibitory concentration (IC50) in test [1] of 286 nM. Turning to `CN(C)S(=O)(=O)c1cccc(-c2cnc3[nH]cc(-c4cccc(NC(=O)Nc5ccccc5Oc5ccccc5)c4)c3c2)c1`, the IC50 in test [2] was found to be 1120 nM; in test [1] it was 57 nM. The compound `O=C(Nc1cccc(-c2c[nH]c3ncc(-c4ccccc4)cc23)c1)Nc1ccc(C(F)(F)F)cc1F` yielded an IC50 in test [1] of 1260 nM.

On to `CN(C)C(=O)c1cccc(-c2cnc3[nH]cc(-c4cccc(NC(=O)Nc5ccccc5Nc5ccccc5)c4)c3c2)c1`, for which the IC50 came to 407 nM in test [2] and 39 nM in test [1]. The compound `CN1CCN(C(=O)c2cccc(-c3cnc4[nH]cc(-c5cccc(NC(=O)Nc6ccc(C(F)(F)F)cc6F)c5)c4c3)c2)CC1` showed an IC50 in test [1] of 335 nM. Consider `O=C(Nc1cccc(-c2c[nH]c3ncc(-c4cccc(C(=O)O)c4)cc23)c1)Nc1ccccc1Oc1ccccc1`, for which the IC50 in test [2] is 1040 nM; in test [1], 184 nM.

With `CN(C)C(=O)c1cccc(-c2cnc3[nH]cc(-c4cccc(NC(=O)Nc5cccc(Oc6ccccc6)c5)c4)c3c2)c1`, the results for the IC50 in test [2] and in test [1] were 961 nM and 212 nM, respectively. Take `CN(C)C(=O)c1ccc(-c2cnc3[nH]cc(-c4cccc(NC(=O)Nc5ccccc5Oc5ccccc5)c4)c3c2)cc1`: the half-inhibitory concentration (IC50) in test [2] was 128 nM; in test [1], 31 nM. Compound `COc1ccc(-c2cnc3[nH]cc(-c4cccc(NC(=O)Nc5ccc(C(F)(F)F)cc5F)c4)c3c2)cc1OC` had an IC50 in test [1] of 2200 nM. Turning to `NCc1ccc(-c2cnc3[nH]cc(-c4cccc(NC(=O)Nc5cccc(Cl)c5)c4)c3c2)cc1`, in test [1], the IC50 is 20 nM. With `O=C(Nc1cccc(-c2c[nH]c3ncc(-c4cccc(F)c4)cc23)c1)Nc1ccc(C(F)(F)F)cc1F`, it took 605 nM to reach half-maximal inhibition in test [1] (IC50). As for `O=C(Nc1cccc(-c2c[nH]c3ncc(-c4ccoc4)cc23)c1)Nc1ccccc1Oc1ccccc1`, the IC50 in test [2] came to 1260 nM; in test [1], 251 nM. `O=C(Nc1cccc(-c2c[nH]c3ncc(-c4ccccc4)cc23)c1)Nc1ccccc1Oc1ccccc1`: the IC50 in test [2] was found to be 693 nM; in test [1], 127 nM. In the same order, the values of `CN(C)CCNC(=O)c1ccc(-c2cnc3[nH]cc(-c4cccc(NC(=O)Nc5ccccc5Oc5ccccc5)c4)c3c2)cc1` are 415 nM and 4 nM.
